In patent publication US20260167622A1, “PAN-KRAS DEGRADING AGENT, AND PREPARATION METHOD THEREFOR AND USE THEREOF” (LEADINGTAC PHARMACEUTICAL (SHAOXING) CO., LTD., priority 2022, published 2026):

Key:
Assay type in all cases: cell-based
[1] = test system: KRAS G13D mutant human colorectal cancer epithelial cell DLD-1; experiment: 3D cell proliferation inhibition assay, DLD-1; conditions: DLD-1, 168 h, 3D culture, 7 days, CTG
Outline: (§1)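 Seven-day 3D growth at 37 °C in low-adsorption wells, 5×10^2 cells/well except MKN1 (1×10^3), final compound range 10000–0.026 nM in 0.2% DMSO. CTG luminescence read-out; percent inhibition set against DMSO and medium-only wells, IC50 by curve fitting.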

[2] = biological target: T1, KRAS WT (expanded) protein in MKN1 cells (Homo sapiens, UniProt P01116); experiment: KRAS degradation assay (Western Blot) in MKN1 cells; conditions: for DC50: 24 h; for Dmax: MKN-1, 24 h
T1 construct: endogenous in cells; host or cells: MKN1 (MKN-1)
Text: (§2) Test Example 5: KRAS G12C, KRAS G12D, KRAS G12V, KRAS G13D, and KRAS WT (Expanded) Degradation Assays
(§3) The degradation effect of the compounds on KRAS was investigated on KRAS G12C mutant human non-small cell lung cancer cell NCI-H358, KRAS G12D mutant human metastatic pancreatic cancer cell AsPc-1, KRAS G12D mutant human lung cancer cell A427, KRAS G12V mutant human colorectal cancer cell SW620, KRAS G12V mutant human lung cancer cell SW900, KRAS G13D mutant human colorectal cancer epithelial cell DLD-1, and KRAS WT human gastric cancer cell MKN-1. The specific procedures were as follows: 0.95 mL of cells were seeded into each well of a 24-well cell culture plate to achieve a cell density of 5×10^5 cells/well; and the cell plate was incubated in an incubator at 37° C. with 5% CO2 overnight. Then 50 μL of the compound solution after dilution was added to each of the wells with the corresponding cells, so that the final concentration of the compound was in a range of 0.03-3000 nM. The final concentration of DMSO was 0.25%. After the compounds were added, the cell plate was incubated in an incubator at 37° C. with 5% CO2 for 24 h. The culture medium in the 24-well cell culture plate was then removed, and the plate was washed twice with 1×PBS (KeyGEN). 120 μL of RIPA (strong) lysis buffer (Beyotime) (supplemented with 1 mM phenylmethylsulfonyl fluoride, a protease inhibitor mixture (Beyotime), and a protease phosphatase inhibitor mixture (Beyotime)) was added to lyse adherent SW900 cells at the bottom of the cell culture plate. After the plate was left to stand on ice for 30 min, the protein lysate in each well was transferred to a 1.5 mL centrifuge tube and centrifuged at 15000 g for 20 min at 4° C. The cell lysate supernatants after centrifugation were cryopreserved in a refrigerator at −80° C. for later use.
(§4) After the samples of the cell lysate supernatants that had been prepared were thawed from the refrigerator at −80° C., the total protein concentrations of the cell lysates were determined using a BCA protein quantification kit (Tiangen). The total protein concentrations of the samples were then adjusted to 0.5 μg/μL with PBS and 5×SDS-PAGE protein loading buffer (Beyotime), and the samples were incubated in a water bath at 100° C. for 15 min. The samples were then incubated in an ice bath for 5 min and centrifuged at 14000 g for 1 min at 4° C., and the supernatants were mixed well as loading samples for the Western Blot assay. The samples were loaded into wells of a 10% precast gel (KeyGEN) with a loading volume of 10 μL (total protein: 5 μg), a sufficient Tris-MOPS-SDS running buffer (Adamas) was added, and then electrophoresis was performed at a constant voltage of 120 V for 55 min. After the electrophoresis, the proteins on the gel were transferred to PVDF membranes at a constant current of 250 mA for 55 min. After the membrane transfer, the PVDF membranes were incubated in 1× Quick Block blocking buffer (Beyotime)at room temperature for 30 min. After the blocking, the PVDF membranes were separately incubated at 4° C. overnight with the KRAS antibody (Abcam) diluted in a ratio of 1:1000 and the β-actin antibody (Abcam) diluted in a ratio of 1:2000 in 5% BSA as the diluent, and then washed with 1×TBST buffer (2.4 g of Tris, 8.8 g of NaCl, 1.5 mL of Tween 20, with pH adjusted to 7.4, with the volume brought to 1 L) 3 times for 10 min/time. The membranes were incubated with a secondary antibody (Abcam) diluted in 5% BSA at room temperature for 2 h, and then washed with 1×TBST buffer 3 times for 10 min/time. Finally, the membranes were incubated with Clarity Western ECL Substrate (BIO-RAD) for 5 min for luminescence and color development, and a ChemiScope 6200 Touch chemiluminescence imaging system (Clinx) was used for color development and protein mapping. Gray value analysis of the protein maps was performed using the chemiluminescence analysis software (Clinx). […]

[3] = biological target: T2, KRAS G12C protein in NCI-H358 cells (Homo sapiens, UniProt P01116, G12C); experiment: KRAS degradation assay (Western Blot) in NCI-H358 cells; conditions: 24 h
T2 construct: endogenous in cells; host or cells: NCI-H358
Text: as §2, §3, §4

[4] = biological target: T3, KRAS G12D protein in AsPc-1 cells (Homo sapiens, UniProt P01116, G12D); experiment: KRAS degradation assay (Western Blot) in AsPc-1 cells; conditions: for DC50: 24 h; for Dmax: ASPC1, 24 h
T3 construct: endogenous in cells; host or cells: AsPc-1
Text: as §2, §3, §4

[5] = test system: KRAS G12C mutant human non-small cell lung cancer cell NCI-H358; experiment: 3D cell proliferation inhibition assay, NCI-H358; conditions: NCI-H358, 168 h, 3D culture, 7 days, CTG
Outline: as §1

[6] = test system: KRAS WT human gastric cancer cell MKN1; experiment: 3D cell proliferation inhibition assay, MKN1; conditions: MKN-1, 168 h, 3D culture, 7 days, CTG
Outline: as §1

[7] = test system: KRAS G12V mutant human colorectal cancer cell SW620; experiment: 3D cell proliferation inhibition assay, SW620; conditions: SW-620, 168 h, 3D culture, 7 days, CTG
Outline: as §1

[8] = biological target: T4, KRAS G13D protein in DLD-1 cells (Homo sapiens, UniProt P01116, G13D); experiment: KRAS degradation assay (Western Blot) in DLD-1 cells; conditions: 24 h
T4 construct: endogenous in cells; host or cells: DLD-1
Outline: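 AsPc-1, A427, DLD-1 and SW900 cells (5×10^5/well) were treated 24 h at 37 °C with compound at 0.03-3000 nM final (0.25% DMSO). KRAS in lysates was detected by Western blot (5 μg protein, ECL), normalized to β-actin and compared with control to derive DC50 and Dmax.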

[9] = test system: KRAS G12D mutant human metastatic pancreatic cancer cell AsPc-1; experiment: 3D cell proliferation inhibition assay, AsPc-1; conditions: ASPC1, 168 h, 3D culture, 7 days, CTG
Outline: as §1

[10] = biological target: T5, KRAS G12V protein in SW620 cells (Homo sapiens, UniProt P01116, G12V); experiment: KRAS degradation assay (Western Blot) in SW620 cells; conditions: for DC50: 24 h; for Dmax: SW-620, 24 h
T5 construct: endogenous in cells; host or cells: SW620
Outline: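 Cells seeded at 5×10^5 cells/well, incubated overnight, then treated 24 h at 37 °C with compound (final 0.03–3000 nM, 0.25% DMSO). KRAS in lysates measured by Western blot with β-actin normalisation; degradation versus vehicle control fitted to give DC50 and Dmax.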

T1 sequence (P01116 1-188 isoform P01116-2): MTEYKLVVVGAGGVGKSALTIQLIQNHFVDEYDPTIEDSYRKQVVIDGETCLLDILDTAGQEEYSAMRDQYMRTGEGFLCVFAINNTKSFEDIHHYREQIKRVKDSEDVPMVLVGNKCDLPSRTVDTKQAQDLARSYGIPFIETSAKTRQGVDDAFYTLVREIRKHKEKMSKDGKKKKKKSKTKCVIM
T2 sequence (P01116 1-188 isoform P01116-2 G12C): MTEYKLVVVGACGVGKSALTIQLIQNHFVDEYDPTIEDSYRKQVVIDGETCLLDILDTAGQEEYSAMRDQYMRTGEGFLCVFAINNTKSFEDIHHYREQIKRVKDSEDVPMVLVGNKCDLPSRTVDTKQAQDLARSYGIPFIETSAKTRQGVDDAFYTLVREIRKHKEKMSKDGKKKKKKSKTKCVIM
T3 sequence (P01116 1-188 isoform P01116-2 G12D): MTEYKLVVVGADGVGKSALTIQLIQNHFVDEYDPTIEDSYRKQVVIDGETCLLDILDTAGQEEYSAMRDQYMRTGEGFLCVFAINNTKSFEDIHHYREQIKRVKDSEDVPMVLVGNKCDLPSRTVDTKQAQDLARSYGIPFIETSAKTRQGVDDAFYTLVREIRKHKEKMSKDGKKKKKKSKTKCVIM
T5 sequence (P01116 1-188 isoform P01116-2 G12V): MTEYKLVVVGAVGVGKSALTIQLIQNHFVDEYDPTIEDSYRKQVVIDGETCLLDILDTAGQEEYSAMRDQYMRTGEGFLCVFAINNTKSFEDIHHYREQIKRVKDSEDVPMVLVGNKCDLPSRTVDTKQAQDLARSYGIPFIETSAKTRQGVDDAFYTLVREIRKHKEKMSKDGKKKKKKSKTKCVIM
T4 sequence (P01116 1-188 isoform P01116-2 G13D): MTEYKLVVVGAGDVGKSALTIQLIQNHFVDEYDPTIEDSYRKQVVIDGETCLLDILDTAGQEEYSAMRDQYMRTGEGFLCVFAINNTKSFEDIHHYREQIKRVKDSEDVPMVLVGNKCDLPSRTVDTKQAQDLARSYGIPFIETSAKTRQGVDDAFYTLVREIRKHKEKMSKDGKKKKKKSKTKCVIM

| SMILES | IC50 [1] [nM] | DC50 [2] [nM] | Dmax [2] [%] | DC50 [3] [nM] | Dmax [3] [%] | DC50 [4] [nM] | Dmax [4] [%] | IC50 [5] [nM] | IC50 [6] [nM] | IC50 [7] [nM] | DC50 [8] [nM] | Dmax [8] [%] | IC50 [9] [nM] | DC50 [10] [nM] | Dmax [10] [%] |
| --- | --- | --- | --- | --- | --- | --- | --- | --- | --- | --- | --- | --- | --- | --- | --- |
| C#Cc1c(F)ccc2cc(O)cc(-c3ncc4c(N5CCC[C@@](C)(O)C5)nc(OC[C@H](C)CN5CCN(CC6CCC7(CC6)CCN(C(=O)c6ccc(C)c(N8CCC(=O)NC8=O)c6)CC7)CC5)nc4c3F)c12 [Example 47, 1-(5-(9-((4-((R)-3-((7-(8-ethynyl-7-fluoro-3-hydroxynaphthalen-1-yl)-8-fluoro-4-((R)-3-hydroxy-3-methylpiperidin-1-yl)pyrido[4,3-d]pyrimidin-2-yl)oxy)-2-methylpropyl)piperazin-1-yl)methyl)-3-azaspiro[5.5]undecane-3-carbonyl)-2-methylphenyl)dihydropyrimidine-2,4(1H,3H)-dione] | 3.55 | 0.28 | 97.4 | 1.7 | 88.9 | 18.7 | 93.3 | 2.33 | 2.33 | 1.92 | 2.05 | 100 | 6.48 | 0.99 | 100 |
| C#Cc1c(F)ccc2cc(O)cc(-c3ncc4c(N5CCC[C@@](C)(O)C5)nc(OCC5(CN6CCN(CC7CCC8(CC7)CCN(C(=O)c7cc(N9CCC(=O)NC9=O)c(C)cc7F)CC8)CC6)CC5)nc4c3F)c12 [Example 91, (R)-1-(5-(9-((4-((1-(((7-(8-ethynyl-7-fluoro-3-hydroxynaphthalen-1-yl)-8-fluoro-4-(3-hydroxy-3-methylpiperidin-1-yl)pyrido[4,3-d]pyrimidin-2-yl)oxy)methyl)cyclopropyl)methyl)piperazin-1-yl)methyl)-3-azaspiro[5.5]undecane-3-carbonyl)-4-fluoro-2-methylphenyl)dihydropyrimidine-2,4(1H,3H)-dione] | 8.33 | 1.15 | 98.9 | 6.04 | 92.7 |  |  | 2.13 | 5.41 | 1.92 | 8.8 | 100 | 4.26 | 5.16 | 100 |
| [2H]C([2H])([2H])Oc1ccc(C(=O)N2CCC3(CCC(CN4CCN(C[C@@H](C)COc5nc(N6CCC[C@@](C)(O)C6)c6cnc(-c7cc(O)cc8ccc(F)c(C#C)c78)c(F)c6n5)CC4)CC3)CC2)cc1N1CCC(=O)NC1=O [Example 164, 1-(5-(9-((4-((R)-3-((7-(8-ethynyl-7-fluoro-3-hydroxynaphthalen-1-yl)-8-fluoro-4-((R)-3-hydroxy-3-methylpiperidin-1-yl)pyrido[4,3-d]pyrimidin-2-yl)oxy)-2-methylpropyl)piperazin-1-yl)methyl)-3-azaspiro[5.5]undecane-3-carbonyl)-2-(methoxy-d3)phenyl)dihydropyrimidine-2,4(1H,3H)-dione] | 3.9 | 1.25 | 99.5 | 1.11 | 98.2 | 5.91 | 99.6 | 4.66 | 22.6 | 3.76 | 4.39 | 100 | 12.1 | 7.48 | 99.5 |
| [2H]C([2H])([2H])Oc1ccc(C(=O)N2CCC3(CCC(CN4CCN(CC5(COc6nc(N7CCC[C@@](C)(O)C7)c7cnc(-c8cc(O)cc9ccc(F)c(C#C)c89)c(F)c7n6)CC5)CC4)CC3)CC2)cc1N1CCC(=O)NC1=O [Example 170, (R)-1-(5-(9-((4-((1-(((7-(8-ethynyl-7-fluoro-3-hydroxynaphthalen-1-yl)-8-fluoro-4-(3-hydroxy-3-methylpiperidin-1-yl)pyrido[4,3-d]pyrimidin-2-yl)oxy)methyl)cyclopropyl)methyl)piperazin-1-yl)methyl)-3-azaspiro[5.5]undecane-3-carbonyl)-2-(methoxy-d3)phenyl)dihydropyrimidine-2,4(1H,3H)-dione] | 6.28 | 0.76 | 99.3 | 2.65 | 96.1 | 5.53 | 100 | 2.49 | 6.7 | 2.59 | 1.96 | 99.9 | 6.31 | 2.35 | 97.7 |
